According to US12459899B2, “Isoquinolinone derivatives, method for preparing the same, and pharmaceutical composition for preventing or treating poly(ADP-ribose) polymerase-1-related diseases, comprising the same as active ingredient” (DIGMBIO. INC., priority 2019, dated 2025):

Biological target: PARP-1 (poly[ADP-ribose] polymerase 1) enzyme (Homo sapiens (Human), UniProt P09874)
Experiment: PARP-1 (poly[ADP-ribose] polymerase 1) enzyme inhibitory ability, Trevigen assay kit
Format: biochemical
Details: for inhibition at 0.001 µM: 1 nM compound, read-out: PAR P-1 Inhibitory ability at 1 nM; for IC50: PARP-1 enzyme activity
Method in brief: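 Human PARP-1 activity was measured with a Trevigen assay kit in histone-coated 96-well plates rehydrated with 50 μL of 1×PARP buffer for 30 minutes. Enzyme (0.5 unit/well) and compound were preincubated 10 minutes at room temperature, then 25 μL of 1×PARP cocktail with biotinylated NAD and activated DNA was added for 1 hour.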

Chain of PARP-1 (poly[ADP-ribose] polymerase 1) enzyme (P09874 whole entry): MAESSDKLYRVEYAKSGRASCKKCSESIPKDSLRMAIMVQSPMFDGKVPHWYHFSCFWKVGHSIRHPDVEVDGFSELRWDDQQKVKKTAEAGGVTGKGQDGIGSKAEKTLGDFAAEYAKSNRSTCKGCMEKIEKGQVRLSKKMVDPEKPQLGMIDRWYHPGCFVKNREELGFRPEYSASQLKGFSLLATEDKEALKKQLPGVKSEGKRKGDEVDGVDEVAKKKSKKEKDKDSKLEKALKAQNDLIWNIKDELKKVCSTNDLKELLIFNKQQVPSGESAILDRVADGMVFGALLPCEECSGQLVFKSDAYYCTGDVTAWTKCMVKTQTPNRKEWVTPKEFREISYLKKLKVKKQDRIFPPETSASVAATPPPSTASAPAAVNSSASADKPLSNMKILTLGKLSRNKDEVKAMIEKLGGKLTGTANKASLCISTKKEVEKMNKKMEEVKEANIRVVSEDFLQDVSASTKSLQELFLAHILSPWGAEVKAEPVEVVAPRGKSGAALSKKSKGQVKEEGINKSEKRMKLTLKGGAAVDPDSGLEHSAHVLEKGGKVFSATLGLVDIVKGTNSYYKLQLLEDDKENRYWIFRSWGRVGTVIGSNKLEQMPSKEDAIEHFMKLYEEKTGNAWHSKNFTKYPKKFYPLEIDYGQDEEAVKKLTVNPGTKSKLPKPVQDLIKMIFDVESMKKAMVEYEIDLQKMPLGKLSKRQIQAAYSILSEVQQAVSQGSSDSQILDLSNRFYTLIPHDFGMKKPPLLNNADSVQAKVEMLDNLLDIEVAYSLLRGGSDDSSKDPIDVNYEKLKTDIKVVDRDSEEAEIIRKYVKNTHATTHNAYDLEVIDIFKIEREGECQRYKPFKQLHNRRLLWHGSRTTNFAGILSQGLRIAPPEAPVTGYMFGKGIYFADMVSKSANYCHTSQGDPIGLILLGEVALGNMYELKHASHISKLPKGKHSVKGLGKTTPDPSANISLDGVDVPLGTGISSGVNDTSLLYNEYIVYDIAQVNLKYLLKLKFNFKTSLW

Structure (SMILES) | inhibition at 0.001 µM [%] | IC50 [nM]
N#Cc1ccc(C2=CCN(CCCc3cc4ccc(F)cc4c(=O)[nH]3)CC2)nc1 [Example 50, 1′-(3-(7-fluoro-1-oxo-1,2-dihydroisoquinolin-3-yl)propyl)-1′,2′,3′,6′-tetrahydro-[2,4′-bipyridine]-5-carbonitrile] | < 50 | 1.88
Cc1cc(F)cc2c(=O)[nH]c(CCC(=O)N3CCN(c4ccc(F)c(C#N)c4)CC3)cc12 [Example 158, 2-fluoro-5-(4-(3-(7-fluoro-5-methyl-1-oxo-1,2-dihydroisoquinolin-3-yl)propanoyl)piperazin-1-yl)benzonitrile] | < 50 | –
Cc1ccc(F)c2c(=O)[nH]c(CCC(=O)N3CCC(Nc4ccc(Cl)cc4)CC3)cc12 [Example 264, 3-(3-(4-((4-chlorophenyl)amino)piperidin-1-yl)-3-oxopropyl)-8-fluoro-5-methylisoquinolin-1(2H)-one] | < 50 | –
O=c1[nH]c(CCCN2CC=C(c3cccc(F)c3)CC2)cc2ncccc12 [Example 238, 7-(3-(4-(3-fluorophenyl)-3,6-dihydropyridin-1(2H)-yl)propyl)-1,6-naphthyridin-5(6H)-one] | < 50 | –
N#Cc1ccc(NC2CCN(CCCc3cc4ncccc4c(=O)[nH]3)CC2)cc1 [Example 250, 4-((1-(3-(5-oxo-5,6-dihydro-1,6-naphthyridin-7-yl)propyl)piperidin-4-yl)amino)benzonitrile] | < 50 | –
O=c1[nH]c(CCCN2C3CCC2CN(c2ccc(F)nc2)C3)cc2ncccc12 [Example 233, 7-(3-(3-(6-fluoropyridin-3-yl)-3,8-diazabicyclo[3.2.1]octan-8-yl)propyl)-1,6-naphthyridin-5(6H)-one] | 50 to 80 | –
O=c1[nH]c(CCCN2C3CCC2CC(O)C3)cc2cccc(F)c12 (centres unmarked) [Example 272, 8-fluoro-3-(3-(3-hydroxy-8-azabicyclo[3.2.1]octan-8-yl)propyl)isoquinolin-1(2H)-one] | 50 to 80 | 3.27
N#Cc1ccc(F)c(N2CCN(C(=O)CCc3cc4ccc(F)cc4c(=O)[nH]3)CC2)c1 [Example 107, 4-fluoro-3-(4-(3-(7-fluoro-1-oxo-1,2-dihydroisoquinolin-3-yl)propanoyl)piperazin-1-yl)benzonitrile] | < 50 | –
Cc1ccc(F)c2c(=O)[nH]c(CCCN3CCN(c4ncccn4)CC3)cc12 [Example 25, 8-fluoro-5-methyl-3-(3-(4-(pyrimidin-2-yl)piperazin-1-yl)propyl)isoquinolin-1(2H)-one] | < 50 | –
N#Cc1ccc(N2CCN(C(=O)CCc3cc4cccc(F)c4c(=O)[nH]3)CC2)c(F)c1 [Example 73, 3-fluoro-4-(4-(3-(8-fluoro-1-oxo-1,2-dihydroisoquinolin-3-yl)propanoyl)piperazin-1-yl)benzonitrile] | < 50 | –
Cc1ccc(F)c2c(=O)[nH]c(CCC(=O)N3CC=C(c4ccc(F)nc4)CC3)cc12 [Example 129] | < 50 | –
O=c1[nH]c(CCCN2CCN(c3ccnc(F)c3)CC2)cc2ncccc12 [Example 227, 7-(3-(4-(2-fluoropyridin-4-yl)piperazin-1-yl)propyl)-1,6-naphthyridin-5(6H)-one] | < 50 | –
Cc1cc(F)cc2c(=O)[nH]c(CCC(=O)N3C4CCC3CN(c3ccc(C#N)cn3)C4)cc12 [Example 214] | < 50 | –
N#Cc1cccc(N2CCN(C(=O)CCc3cc4cccc(F)c4c(=O)[nH]3)CC2)c1 [Example 77, 3-(4-(3-(8-fluoro-1-oxo-1,2-dihydroisoquinolin-3-yl)propanoyl)piperazin-1-yl)benzonitrile] | < 50 | –
Cc1cc(F)cc2c(=O)[nH]c(CCC(=O)N3CC=C(c4ccnc(F)c4)CC3)cc12 [Example 168, 7-fluoro-3-(3-(2′-fluoro-3,6-dihydro-[4,4′-bipyridine]-1(2H)-yl)-3-oxopropyl)-5-methylisoquinolin-1(2H)-one] | < 50 | –
Cc1ccc(F)c2c(=O)[nH]c(CCC(=O)N3CCN(c4ccc(C(=O)O)cc4)CC3)cc12 [Example 147, 4-(4-(3-(8-fluoro-5-methyl-1-oxo-1,2-dihydroisoquinolin-3-yl)propanoyl)piperazin-1-yl)benzoic acid] | < 50 | –
N#Cc1ccc(N2CCN(C(=O)CCc3cc4cccc(F)c4c(=O)[nH]3)CC2)cc1 [Example 68, 4-(4-(3-(8-fluoro-1-oxo-1,2-dihydroisoquinolin-3-yl)propanoyl)piperazin-1-yl)benzonitrile] | < 50 | 1.9
Cc1ccc(F)c2c(=O)[nH]c(CCC(=O)N3CCC(Nc4ccc(C(F)(F)F)cc4)CC3)cc12 [Example 266, 8-fluoro-5-methyl-3-(3-oxo-3-(4-((4-(trifluoromethyl)phenyl)amino)piperidin-1-yl)propyl)isoquinolin-1(2H)-one] | < 50 | –

Structure (SMILES) | inhibition at 0.001 µM [%] | IC50 [nM]
Cc1cc(F)cc2c(=O)[nH]c(CCC(=O)N3CCN(c4cccc(F)c4)CC3)cc12 [Example 167, 7-fluoro-3-(3-(4-(3-fluorophenyl)piperazin-1-yl)-3-oxopropyl)-5-methylisoquinolin-1(2H)-one] | < 50 | –
Cc1cc(F)cc2c(=O)[nH]c(CCC(=O)N3C4CCC3CN(c3ccc(C#N)cc3)C4)cc12 [Example 213, 4-(8-(3-(7-fluoro-5-methyl-1-oxo-1,2-dihydroisoquinolin-3-yl)propanoyl)-3,8-diazabicyclo[3.2.1]octan-3-yl)benzonitrile] | < 50 | –
O=C(CCc1cc2cccc(F)c2c(=O)[nH]1)N1CCN(C(=O)C2CCCCC2)CC1 [Example 170, 3-(3-(4-(cyclohexanecarbonyl)piperazin-1-yl)-3-oxopropyl)-8-fluoroisoquinolin-1(2H)-one] | < 50 | –
Cc1cc(F)cc2c(=O)[nH]c(CCC(=O)N3CCN(C(=O)C4CCCCC4)CC3)cc12 [Example 173, 3-(3-(4-(cyclohexanecarbonyl)piperazin-1-yl)-3-oxopropyl)-7-fluoro-5-methylisoquinolin-1(2H)-one] | < 50 | –
Cc1ccc(F)c2c(=O)[nH]c(CCC(=O)N3CCN(c4ccccc4C#N)CC3)cc12 [Example 127, 2-(4-(3-(8-fluoro-5-methyl-1-oxo-1,2-dihydroisoquinolin-3-yl)propanoyl)piperazin-1-yl)benzonitrile] | < 50 | –
Cc1cc(F)cc2c(=O)[nH]c(CCC(=O)N3CCN(c4ccc(Cl)cc4)CC3)cc12 [Example 155, 3-(3-(4-(4-chlorophenyl)piperazin-1-yl)-3-oxopropyl)-7-fluoro-5-methylisoquinolin-1(2H)-one] | < 50 | –
N#Cc1ccc(N2CC3CCC(C2)N3C(=O)CCc2cc3ncccc3c(=O)[nH]2)cc1 [Example 246, 4-(8-(3-(5-oxo-5,6-dihydro-1,6-naphthyridin-7-yl)propanoyl)-3,8-diazabicyclo[3.2.1]octan-3-yl)benzonitrile] | < 50 | –
N#Cc1ccc(N2CCN(C(=O)CCc3cc4ccc(F)cc4c(=O)[nH]3)CC2)cc1F [Example 101, 2-fluoro-4-(4-(3-(7-fluoro-1-oxo-1,2-dihydroisoquinolin-3-yl)propanoyl)piperazin-1-yl)benzonitrile] | < 50 | –
N#Cc1ccc(N2CC3CCC(C2)N3CCCc2cc3ccc(F)cc3c(=O)[nH]2)nc1 [Example 204, 6-(8-(3-(7-fluoro-1-oxo-1,2-dihydroisoquinolin-3-yl)propyl)-3,8-diazabicyclo[3.2.1]octan-3-yl)nicotinonitrile] | 50 to 80 | –
N#Cc1ccc(N2CCN(C(=O)CCc3cc4cccc(F)c4c(=O)[nH]3)CC2)cc1F [Example 72, 2-fluoro-4-(4-(3-(8-fluoro-1-oxo-1,2-dihydroisoquinolin-3-yl)propanoyl)piperazin-1-yl)benzonitrile] | < 50 | –
Cc1ccc(F)c2c(=O)[nH]c(CCCN3CC[C@H](c4ccc(F)cc4)C3)cc12 [Example 31, (R)-8-fluoro-3-(3-(3-(4-fluorophenyl)pyrrolidin-1-yl)propyl)-5-methylisoquinolin-1(2H)-one] | < 50 | –
Cc1cc(F)cc2c(=O)[nH]c(CCC(=O)N3CCC(Nc4ccc(Cl)cc4)CC3)cc12 [Example 263, 3-(3-(4-((4-chlorophenyl)amino)piperidin-1-yl)-3-oxopropyl)-7-fluoro-5-methylisoquinolin-1(2H)-one] | < 50 | –
Cc1ccc(F)c2c(=O)[nH]c(CCC(=O)N3CCN(c4cc(C#N)ccc4F)CC3)cc12 [Example 133, 4-fluoro-3-(4-(3-(8-fluoro-5-methyl-1-oxo-1,2-dihydroisoquinolin-3-yl)propanoyl)piperazin-1-yl)benzonitrile] | < 50 | –
O=C(CCc1cc2cccc(F)c2c(=O)[nH]1)N1CCN(C(=O)C2CCCC2)CC1 [Example 174, 3-(3-(4-(cyclopentanecarbonyl)piperazin-1-yl)-3-oxopropyl)-8-fluoroisoquinolin-1(2H)-one] | < 50 | –
Cc1ccc(F)c2c(=O)[nH]c(CCC(=O)N3CC=C(c4ccc(F)cc4)CC3)cc12 [Example 125, 8-fluoro-3-(3-(4-(4-fluorophenyl)-3,6-dihydropyridin-1(2H)-yl)-3-oxopropyl)-5-methylisoquinolin-1(2H)-one] | < 50 | –
Cc1ccc(F)c2c(=O)[nH]c(CCC(=O)N3CCN(C(=O)C4CCCO4)CC3)cc12 (centres unmarked) [Example 191, 8-fluoro-5-methyl-3-(3-oxo-3-(4-(tetrahydrofuran-2-carbonyl)piperazin-1-yl)propyl)isoquinolin-1(2H)-one] | < 50 | –
N#Cc1ccc(C2=CCN(C(=O)CCc3cc4cccc(F)c4c(=O)[nH]3)CC2)cn1 [Example 93, 1′-(3-(8-fluoro-1-oxo-1,2-dihydroisoquinolin-3-yl)propanoyl)-1′,2′,3′,6′-tetrahydro-[3,4′-bipyridine]-6-carbonitrile] | < 50 | –
